From PubChem BioAssay (NCI)
Several values for one entry are separate records, joined by “and”; a condition that tells them apart may be missing. Identical values can stand only once.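 Where inhibition never reached the appropriate level, the endpoint shown equals the highest concentration tested. Otherwise, values were interpolated linearly from a five-concentration, 48-hour dose response in 96-well plates. GI50 is the concentration that inhibits growth by half. TGI is the concentration that stops growth completely.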

Columns and labels:
Assay in all cases: NCI anticancer screen, dose series, 48 h
[1] = tested on: TK-10 renal
[2] = tested on: SK-MEL-28 melanoma
[3] = tested on: U251 CNS
[4] = tested on: HL-60(TB) leukemia
[5] = tested on: HCT-116 colon
[6] = tested on: SF-295 CNS
[7] = tested on: ACHN renal
[8] = tested on: 786-0 renal
[9] = tested on: A498 renal
[10] = tested on: OVCAR-8 ovarian

`CC1=NN(C(=O)c2ccc(Cl)cc2)C(=O)/C1=C/c1ccco1` was tested, and the TGI [1] was > 100 µM, the TGI [2] was > 100 µM and the TGI [3] was > 100 µM. For the same molecule, the TGI [4] was > 100 µM, the TGI [5] was > 100 µM and the TGI [6] was > 100 µM. The TGI [7] was > 100 µM, the TGI [8] was > 100 µM and the TGI [9] was > 100 µM. For the same molecule, the TGI [10] was > 100 µM.
For `CC1CCc2c(c(CC3CC(=O)NC(=O)C3)nn2-c2ccccc2)C1` (stereo not given), the TGI [1] was > 100 µM, the TGI [2] was > 100 µM and the TGI [3] was > 100 µM. The TGI [4] was > 100 µM, the TGI [5] was > 100 µM and the TGI [6] was > 100 µM. For the same molecule, the TGI [7] was > 100 µM, the TGI [8] was > 100 µM and the TGI [9] was > 100 µM. For the same molecule, the TGI [10] was > 100 µM.
For `CC1=NN(C(=O)c2ccncc2)C(=O)C1N=Nc1ccc2ccccc2c1` (stereo not given), the TGI [1] was > 100 µM, the TGI [2] was > 100 µM and the TGI [3] was > 100 µM. The TGI [4] was > 20.6 µM, the TGI [5] was > 100 µM and the TGI [6] was > 100 µM. The TGI [7] was > 100 µM, the TGI [8] was > 100 µM and the TGI [9] was > 100 µM. For the same molecule, the TGI [10] was > 100 µM.
`Cn1nc(-c2ccccc2)c(C(=O)/C=C/c2ccc(F)cc2)c(N2CCOCC2)c1=O` gave a TGI [1] of 97.5 µM, a TGI [2] of 31.5 µM and a TGI [3] of 31.4 µM. For the same molecule, the TGI [4] was 40.5 µM, the TGI [5] was 14.3 µM and the TGI [6] was 32.4 µM. For the same molecule, the TGI [7] was 42.1 µM, the TGI [8] was 36.2 µM and the TGI [9] was 32 µM. The TGI [10] was > 100 µM.
For `CO[C@@H]1[C@H]2[C@@H](C)c3ccoc3C[C@@H]2[C@@]2(C)CC[C@H](OC(=O)c3ccccc3)[C@](C)(C(=O)O)[C@]2(O)[C@@H]1OC(=O)c1ccccc1`, the GI50 [1] was 14.3 µM, the TGI [1] was > 50 µM and the GI50 [2] was 14.5 µM. The TGI [2] was > 50 µM, the GI50 [3] was 5.87 µM and the TGI [3] was 12 µM. For the same molecule, the GI50 [4] was 14.7 µM, the TGI [4] was > 50 µM and the GI50 [5] was 8.89 µM. For the same molecule, the TGI [5] was 15.8 µM, the GI50 [6] was 10.3 µM and the TGI [6] was 41.4 µM. It also gave a GI50 [7] of 7.98 µM, a TGI [7] of 18.9 µM and a GI50 [8] of 15.8 µM. The TGI [8] was > 50 µM, the GI50 [9] was 0.941 µM and the TGI [9] was 7.67 µM. For the same molecule, the GI50 [10] was 14.3 µM and the TGI [10] was > 50 µM.
For `CC(CCCC1SCC2NC(=O)NC21)C(=O)O` (stereo not given), the TGI [1] was > 100 µM, the TGI [2] was > 100 µM and the TGI [3] was > 100 µM. The TGI [4] was > 100 µM, the TGI [5] was > 100 µM and the TGI [6] was > 100 µM. The TGI [7] was > 100 µM, the TGI [8] was > 100 µM and the TGI [9] was > 100 µM. The TGI [10] was > 100 µM.
For `CC(=N)N(C)O`, the TGI [1] was > 100 µM, the TGI [2] was > 100 µM and the TGI [3] was > 100 µM. The TGI [4] was > 100 µM, the TGI [5] was > 100 µM and the TGI [6] was > 100 µM. The TGI [7] was > 100 µM, the TGI [8] was > 100 µM and the TGI [9] was > 100 µM. For the same molecule, the TGI [10] was > 100 µM.
Work on `Cc1cc(NNC(=O)c2ccccc2O)nc(Nc2nc3ccccc3o2)n1` yielded a GI50 [1] of 2.73 µM, a TGI [1] of 23.4 µM and a GI50 [2] of 1.64 µM. It also gave a TGI [2] of 13.3 µM, a GI50 [3] of 0.628 µM and a TGI [3] of 13.4 µM. The GI50 [4] was 1.13 µM, the TGI [4] was 6.99 µM and the GI50 [5] was 1.06 µM. For the same molecule, the TGI [5] was 7.47 µM, the GI50 [6] was 0.846 µM and the TGI [6] was 14.4 µM. For the same molecule, the GI50 [7] was 1.02 µM, the TGI [7] was 12.2 µM and the GI50 [8] was 1.8 µM. The TGI [8] was 7.98 µM, the GI50 [9] was 1.53 µM and the TGI [9] was 3.25 µM. For the same molecule, the GI50 [10] was 1.9 µM and the TGI [10] was 12.8 µM.
In the case of `COc1ccc(NC(=O)CCc2cc(C(C)(C)C)n[nH]2)cc1`, the TGI [1] is reported as > 100 µM, the TGI [2] is reported as > 100 µM and the TGI [3] is reported as > 100 µM. For the same molecule, the TGI [4] was > 100 µM, the TGI [5] was > 100 µM and the TGI [6] was > 100 µM. For the same molecule, the TGI [7] was > 100 µM, the TGI [8] was > 100 µM and the TGI [9] was > 100 µM. For the same molecule, the TGI [10] was > 100 µM.
With `Cc1cn2c(/C=C3/C(=O)Nc4ccc(F)cc43)c(C)nc2s1` the GI50 [1] was 22.2 µM, the TGI [1] was > 50 µM and the GI50 [2] was 4.11 µM. For the same molecule, the TGI [2] was > 50 µM, the GI50 [3] was 5.96 µM and the TGI [3] was > 50 µM. The GI50 [4] was 1.98 µM, the TGI [4] was 8.15 µM and the GI50 [5] was 2.92 µM. For the same molecule, the TGI [5] was > 50 µM, the GI50 [6] was 3.76 µM and the TGI [6] was 34.6 µM. The GI50 [7] was 17.2 µM, the TGI [7] was > 50 µM and the GI50 [8] was 14.4 µM. The TGI [8] was > 50 µM, the GI50 [9] was 9.59 µM and the TGI [9] was 25.8 µM. The GI50 [10] was 10.4 µM and the TGI [10] was > 50 µM.
`CC[C@@H](C)Nc1cc(C(=O)NC2CC3CCC(C2)N3c2ccc(C(=O)C3CC3)cn2)c(C)cc1C(N)=O` (stereo not given in full) showed a GI50 [1] of 0.0387 µM, a TGI [1] of 89 µM and a GI50 [2] of 0.0519 µM. The TGI [2] was > 100 µM, the GI50 [3] was 0.0669 µM and the TGI [3] was > 100 µM. The GI50 [4] was 0.0329 µM, the TGI [4] was 88.9 µM and the GI50 [5] was 0.03 µM. The TGI [5] was > 100 µM, the GI50 [6] was 0.0288 µM and the TGI [6] was > 100 µM. For the same molecule, the GI50 [7] was 0.0441 µM, the TGI [7] was > 100 µM and the GI50 [8] was 0.152 µM. For the same molecule, the TGI [8] was > 100 µM, the GI50 [9] was 0.103 µM and the TGI [9] was > 100 µM. For the same molecule, the GI50 [10] was 0.047 µM and the TGI [10] was > 100 µM.
For `CCCCCCCCCCCCCC(=O)OCC1OC(n2cc(F)c(=O)[nH]c2=O)C(N)C(OC(=O)CCCCCCCCCCCCC)C1O` (stereo not given), the TGI [1] was > 100 µM, the TGI [2] was > 100 µM and the TGI [3] was > 100 µM. For the same molecule, the TGI [4] was > 100 µM, the TGI [5] was > 100 µM and the TGI [6] was > 100 µM. For the same molecule, the TGI [7] was > 100 µM, the TGI [8] was > 100 µM and the TGI [9] was > 100 µM. The TGI [10] was > 100 µM.
With `COC(=O)C(C(=O)C(=O)Nc1ccc(OC)cc1[N+](=O)[O-])c1nc2cc(C)c(C)cc2[nH]c1=O` (stereo not given) the TGI [1] was > 100 µM, the TGI [2] was > 100 µM and the TGI [3] was > 100 µM. The TGI [4] was > 100 µM, the TGI [5] was > 100 µM and the TGI [6] was > 100 µM. For the same molecule, the TGI [7] was > 100 µM, the TGI [8] was > 100 µM and the TGI [9] was > 100 µM. For the same molecule, the TGI [10] was > 100 µM.
`C=C1CCC2C3(C)COC(c4ccc(Cl)cc4)OC3CCC2(C)C1/C=C/C1=CCOC1=O` (stereo not given) was tested, and the GI50 [1] was 14.4 µM, the TGI [1] was > 100 µM and the GI50 [2] was 21.7 µM. For the same molecule, the TGI [2] was > 100 µM, the GI50 [3] was 5.68 µM and the TGI [3] was 46.2 µM. The GI50 [4] was 17 µM, the TGI [4] was > 100 µM and the GI50 [5] was 2.54 µM. The TGI [5] was > 100 µM, the GI50 [6] was 1.83 µM and the TGI [6] was 22.5 µM. It also gave a GI50 [7] of 12.1 µM, a TGI [7] of 50.9 µM and a GI50 [8] of 29.8 µM. For the same molecule, the TGI [8] was > 100 µM, the GI50 [9] was 2.18 µM and the TGI [9] was 31.5 µM. The GI50 [10] was 4.07 µM and the TGI [10] was > 100 µM.
For `CCOc1c(C#N)c2c(N)ncnc2n1C1OC(CO)C(O)C1O` (stereo not given), the GI50 [1] was 3.05 µM, the TGI [1] was > 28 µM and the GI50 [2] was 2.52 µM. The TGI [2] was 11.8 µM, the GI50 [3] was 3.21 µM and the TGI [3] was > 100 µM. For the same molecule, the GI50 [4] was 1.94 µM, the TGI [4] was 6.94 µM and the GI50 [5] was 0.881 µM. For the same molecule, the TGI [5] was 3.27 µM, the GI50 [6] was 4.63 µM and the TGI [6] was > 100 µM. The GI50 [7] was 2.95 µM, the TGI [7] was > 100 µM and the GI50 [8] was 3.76 µM. For the same molecule, the TGI [8] was > 24.9 µM, the GI50 [9] was 4.23 µM and the TGI [9] was 49.2 µM. The GI50 [10] was 4.81 µM and the TGI [10] was > 100 µM.
For `NC(=Nc1nc(-c2ccccn2)cc2ccccc12)c1ccccn1`, the GI50 [1] was 0.198 µM, the TGI [1] was > 100 µM and the GI50 [2] was 0.323 µM. The TGI [2] was > 100 µM, the GI50 [3] was 0.111 µM and the TGI [3] was 18.6 µM. For the same molecule, the GI50 [4] was 0.00104 µM, the TGI [4] was 0.0598 µM and 0.251 µM and the GI50 [5] was 0.00151 µM. For the same molecule, the TGI [5] was > 100 µM, the GI50 [7] was 0.0115 µM and the GI50 [8] was 0.0177 µM. It also gave a GI50 [9] of 0.0283 µM, a GI50 [10] of 0.0505 µM and a TGI [10] of 15.5 µM.
